One test has as its target T1, DGKα (Homo sapiens, UniProt P23743).
T1 construct: His; purchased Signal Chem D21-10BH
Put plainly: In vitro DGKα inhibition assay (ADP-Glo). Format: biochemical. The settings on record: His-tagged human recombinant enzyme; 0.1 nM DGKα, 50 μM ATP, 20 μM DLG; 90 minute incubation; ADP-Glo luminescence. The method, then: (§1) The DGKα and DGKζ biochemical reactions were performed using His-tagged human recombinant enzymes (Signal Chem, DGKα, #D21-10BH; DGKζ, #D30-10H)) and DLG (Dilauroyl-sn-glycerol) lipid substrate (Signal Chem, #D430-59). ADP-Glo assay was performed using ADP-Glo™ kinase Assay kit (Promega, #V9104). The reactions were carried out in assay buffer containing 40 mM Tris, pH 7.5, 0.1% CHAPS, 0.1% Prionex, 40 mM NaCl, 5 mM MgCl2, 1 mM CaCl2, and 1 mM DTT. DGKα reactions contained 0.1 nM DGKα, 50 μM ATP, and 20 μM DLG. And DGKζ reactions contained 0.4 nM DGKζ, 30 μM ATP, and 20 μM DLG. For compound inhibition studies, 40 nL test compound in DMSO was added to wells of white polystyrene plates in 384-well (Greiner, #784075) or 1536-well format (Greiner, #782075). Compounds were added with top concentration of 2 mM with 11 point, 3-fold dilution series. Enzyme solution (contains 2× DGK enzyme concentration in 1× assay buffer) was added to the plate in 2 μL/well volume, followed by 2 μL/well of substrate solution (contains 2× concentration of ATP and DLG substrate in 1× assay buffer). Plates were then centrifuged for 1 min at 1200 RPM and sealed or lidded. For 4 μL reaction volume, test compounds were therefore diluted 100× to final top concentration of 20 μM. After 90 minute incubation, reactions were quenched by addition of 2 μL/well Promega ADP-Glo Reagent, followed by centrifugation and lidding. After 60 min incubation, 2 μL/well Promega Kinase Detection Reagent was added, plates centrifuged, and incubated for 30 min. Plates were then read using Luminescence method on BMG PHERAstar FSX plate reader. Percent inhibition was calculated and IC50s were determined using 4-parameter fit in Genedata Screener. Labcyte Echo acoustic dispenser was used for compound addition, and Formulatrix Tempest liquid handler was used for all reagent dispenses.
In general terms: ADP-Glo turns the ADP formed in a reaction into a luminescent signal.

Another test deals with DGKζ (Homo sapiens, UniProt Q13574). Put plainly: In vitro DGKζ inhibition assay (ADP-Glo). Format: biochemical. The settings on record: His-tagged human recombinant enzyme; 0.4 nM DGKζ, 30 μM ATP, 20 μM DLG; 90 minute incubation; ADP-Glo luminescence. The method, then:
as §1

Structures are written as SMILES.

What is called IC50 is the point on the concentration scale where inhibition reaches its midpoint.

T1 sequence (P23743 whole entry): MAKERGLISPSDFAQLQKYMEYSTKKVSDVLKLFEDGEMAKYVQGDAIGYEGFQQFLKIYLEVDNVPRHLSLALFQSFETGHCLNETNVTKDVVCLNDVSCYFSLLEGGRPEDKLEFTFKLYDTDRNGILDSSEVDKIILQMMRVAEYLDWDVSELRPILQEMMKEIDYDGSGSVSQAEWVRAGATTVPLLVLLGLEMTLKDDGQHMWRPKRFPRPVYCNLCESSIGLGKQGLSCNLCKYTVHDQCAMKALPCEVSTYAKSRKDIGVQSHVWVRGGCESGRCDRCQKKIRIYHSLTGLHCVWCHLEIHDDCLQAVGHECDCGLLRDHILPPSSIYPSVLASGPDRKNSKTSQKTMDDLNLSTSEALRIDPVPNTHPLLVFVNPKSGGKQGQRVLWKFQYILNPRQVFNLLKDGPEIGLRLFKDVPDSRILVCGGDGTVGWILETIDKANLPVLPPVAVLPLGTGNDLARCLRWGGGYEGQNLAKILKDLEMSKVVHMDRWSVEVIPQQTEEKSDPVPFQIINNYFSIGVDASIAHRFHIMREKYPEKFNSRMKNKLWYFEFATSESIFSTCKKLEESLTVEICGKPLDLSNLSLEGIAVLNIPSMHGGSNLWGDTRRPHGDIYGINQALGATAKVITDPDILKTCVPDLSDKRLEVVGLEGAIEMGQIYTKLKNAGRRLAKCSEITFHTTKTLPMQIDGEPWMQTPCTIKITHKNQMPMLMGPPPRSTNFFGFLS
DGKζ, sequence (Q13574 whole entry): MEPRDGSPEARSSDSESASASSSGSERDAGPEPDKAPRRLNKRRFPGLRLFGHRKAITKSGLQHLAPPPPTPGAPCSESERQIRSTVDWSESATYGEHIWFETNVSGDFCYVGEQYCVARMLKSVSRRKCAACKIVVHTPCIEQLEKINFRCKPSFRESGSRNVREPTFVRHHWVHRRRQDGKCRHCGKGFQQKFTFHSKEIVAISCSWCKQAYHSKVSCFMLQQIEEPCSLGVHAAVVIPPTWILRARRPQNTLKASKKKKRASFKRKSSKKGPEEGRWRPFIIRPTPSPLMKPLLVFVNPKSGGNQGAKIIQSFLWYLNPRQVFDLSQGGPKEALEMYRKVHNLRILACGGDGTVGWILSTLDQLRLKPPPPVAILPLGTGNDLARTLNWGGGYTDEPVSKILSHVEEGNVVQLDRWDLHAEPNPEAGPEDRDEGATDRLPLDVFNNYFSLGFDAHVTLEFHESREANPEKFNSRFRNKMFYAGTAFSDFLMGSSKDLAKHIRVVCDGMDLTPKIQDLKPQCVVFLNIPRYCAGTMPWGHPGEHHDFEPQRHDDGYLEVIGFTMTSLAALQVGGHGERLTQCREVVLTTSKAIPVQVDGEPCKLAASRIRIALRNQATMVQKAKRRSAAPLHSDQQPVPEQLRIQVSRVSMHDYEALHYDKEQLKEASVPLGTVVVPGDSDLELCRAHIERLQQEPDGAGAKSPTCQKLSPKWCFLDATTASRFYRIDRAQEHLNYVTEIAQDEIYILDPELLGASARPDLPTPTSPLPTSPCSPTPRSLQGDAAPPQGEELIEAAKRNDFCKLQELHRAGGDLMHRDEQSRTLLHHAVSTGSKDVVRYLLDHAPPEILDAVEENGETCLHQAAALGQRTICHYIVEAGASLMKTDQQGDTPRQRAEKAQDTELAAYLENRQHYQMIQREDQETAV

Regarding `[2H]c1c([2H])c([2H])c(Oc2ccc(/C=C(\F)c3cncc(N4CC(F)(F)C4)n3)c(N3CCCC4(CCN(CC)CC4)C3)c2C(F)(F)F)c([2H])c1[2H]` [Example 18, (Z)-2-(6-(2-(6-(3,3-Difluoroazetidin-1-yl)pyrazin-2-yl)-2-fluorovinyl)-3-(phenoxy-d5)-2-(trifluoromethyl)phenyl)-9-ethyl-2,9-diazaspiro[5.5]undecane], the IC50 on DGKα and at DGKζ was ≤ 20 nM each time.

Turning to `F/C(=C\c1ccc(Oc2ccccc2)c(C(F)(F)F)c1N1CCCC2(CCN(CC3CC3)CC2)C1)c1cncc(N2CCC(F)(F)C2)n1` [Example 19, (Z)-9-(Cyclopropylmethyl)-2-(6-(2-(6-(3,3-difluoropyrrolidin-1-yl)pyrazin-2-yl)-2-fluorovinyl)-3-phenoxy-2-(trifluoromethyl)phenyl)-2,9-diazaspiro[5.5]undecane], the IC50 on DGKα and at DGKζ was ≤ 20 nM each time.

Turning to `CCN1CCC2(CCCN(c3c(/C=C(\F)c4cncc(N5CCC(F)(F)C5)n4)ccc(Oc4ccccc4)c3C(F)(F)F)C2)CC1` [Example 20, (Z)-2-(6-(2-(6-(3,3-Difluoropyrrolidin-1-yl)pyrazin-2-yl)-2-fluorovinyl)-3-phenoxy-2-(trifluoromethyl)phenyl)-9-ethyl-2,9-diazaspiro[5.5]undecane], the IC50 on DGKα and at DGKζ was ≤ 20 nM each time.

Regarding `[2H]c1c([2H])c([2H])c(Oc2ccc(/C=C(\F)c3cncc(N4CCC(F)(F)C4)n3)c(N3CCCC4(CCN(CC5CC5)CC4)C3)c2C(F)(F)F)c([2H])c1[2H]` [Example 21, (Z)-9-(Cyclopropylmethyl)-2-(6-(2-(6-(3,3-difluoropyrrolidin-1-yl)pyrazin-2-yl)-2-fluorovinyl)-3-(phenoxy-ds)-2-(trifluoromethyl)phenyl)-2,9-diazaspiro[5.5]undecane], the IC50 at DGKα and on DGKζ was ≤ 20 nM in each case.

For `[2H]c1c([2H])c([2H])c(Oc2ccc(/C=C(\F)c3cncc(N4CCC(F)(F)C4)n3)c(N3CCCC4(CCN(CC)CC4)C3)c2C(F)(F)F)c([2H])c1[2H]` [Example 22, (Z)-2-(6-(2-(6-(3,3-Difluoropyrrolidin-1-yl)pyrazin-2-yl)-2-fluorovinyl)-3-(phenoxy-d5)-2-(trifluoromethyl)phenyl)-9-ethyl-2,9-diazaspiro[5.5]undecane], the IC50 on DGKα and at DGKζ was ≤ 20 nM in each case.

Turning to `F/C(=C\c1ccc(Oc2ccccc2)c(C(F)(F)F)c1N1CCOC2(CCN(CC3CC3)CC2)C1)c1nccc(-c2ccnnc2)n1` [Example 23, (Z)-9-(Cyclopropylmethyl)-4-(6-(2-fluoro-2-(4-(pyridazin-4-yl)pyrimidin-2-yl)vinyl)-3-phenoxy-2-(trifluoromethyl)phenyl)-1-oxa-4,9-diazaspiro[5.5]undecane], the IC50 is 20 to 200 nM on DGKα and ≤ 20 nM at DGKζ.

For the molecule `CCN1CCC2(CC1)CN(c1c(/C=C(\F)c3nccc(-c4ccnnc4)n3)ccc(Oc3ccccc3)c1C(F)(F)F)CCO2` [Example 24, (Z)-9-Ethyl-4-(6-(2-fluoro-2-(4-(pyridazin-4-yl)pyrimidin-2-yl)vinyl)-3-phenoxy-2-(trifluoromethyl)phenyl)-1-oxa-4,9-diazaspiro[5.5]undecane], the IC50 at DGKα and at DGKζ was ≤ 20 nM in each case.

In the case of `COCCN1CCC2(CC1)CN(c1c(/C=C(\F)c3nccc(-c4ccnnc4)n3)ccc(Oc3ccccc3)c1C(F)(F)F)CCO2` [Example 25, (Z)-4-(6-(2-Fluoro-2-(4-(pyridazin-4-yl)pyrimidin-2-yl)vinyl)-3-phenoxy-2-(trifluoromethyl)phenyl)-9-(2-methoxyethyl)-1-oxa-4,9-diazaspiro[5.5]undecane], the IC50 at DGKα and at DGKζ was ≤ 20 nM throughout.

The values above are taken from patent publication US20240217989A1, “Heteroaryl Fluoroalkenes As DGK Inhibitors” (Incyte Corporation, priority 2022, published 2024).
